Legend:
[1] = tested on: DRB1*15:01, DRB1*03:01 and DRB1*07:01; test: Experimental immunogenicity score: relative HLA binding combined across alleles, weighted by allele frequency; parameters: species or system human; key: allele-frequency-weighted sum of binding, % of control peptide signal; conditions: for Difference to WT (Experimental Score): per peptide against wild-type counterpart; for Experimental Score: per peptide, weights DRB1*15:01 0.162, DRB1*07:01 0.146, DRB1*03:01 0.143
Procedure: (§1) To test the designs, we synthesized twenty overlapping 15-mer peptides containing the introduced mutations and their wild-type counterparts. The peptides maximally covered the predicted epitopes around the mutations of all designed constructs that contained one and two mutations (Supplementary S2 Table). The affinity of these peptides to the three HLA alleles was measured at time zero and after 24 hours (Methods, Supplementary S3 and S4 Tables). We linearly combined the measured relative affinity scores across HLA alleles weighted by their allele frequencies for each peptide respectively to produce a score that approximates the overall immunogenicity (Fig 5A). Results are presented for measurements taken at time point zero. […] Overall, the measured and predicted immunogenicity of the tested peptides correlated well with r = 0.76 (CI95 = [0.48, 0.91], t = 4.885, df = 17, p-value = 1.4e-4; Fig 5A). Next, we compared the predicted and measured gain or loss in immunogenicity for the whole region by reconstructing the targeted region using overlapping peptides. The measured relative scores were linearly combined (as previously) and then normalized to the number of overlapping peptides used in the reconstruction (Fig 5B). The difference in the measured scores between the wild type and mutant regions can be thought of as a proxy for gain or loss in immunogenicity and correlated well to the predicted changes (r = 0.86, CI95 = [0.40, 0.97], t = 4.136, df = 6, p-value = 6.1e-3; Fig 5B).
Fig 5 (A) Correlation of experimental and predicted immunogenicity of each peptide. The experimental immunogenicity score of a peptide is defined as the linear combination of the individual experimentally determined relative HLA binding affinity of each HLA allele h ∈ H weighted by the HLA allele frequency. (B) Correlation of experimental and predicted immunogenicity of the whole redesigned region. The summarized immunogenicity score of the whole region is the linear combination of the overlapping peptides used to reconstruct the region, normalized by total number of peptides used. The predicted immunogenicity scores per peptide were computed according to our immunogenicity objective function. The red lines are a fitted linear regression and the red tubes represent their 95-confidence interval.
(§2) In order to experimentally verify our in silico predictions for Factor VIII, we utilized the commercial REVEAL HLA-Peptide binding assay of ProImmune (www.proimmune.com). Peptides were synthesized using the PEPscreen custom library synthesis method, yielding high purity peptides for experimental analysis. HLA-peptide binding was assessed for the three HLA-DRB1 alleles used in this study (DRB1*15:01, DRB1*03:01 and DRB1*07:01). In short, the method compares the affinity of the studied peptide to the affinity of a high-affinity control peptide. Each peptide is then scored for binding to a certain HLA molecule relative to the score of the control peptide and reported as the percentage of the signal generated by the control peptide.

DRB1*15:01 = target: T1, DRB1*15:01 (Homo sapiens, UniProt P01903+P01911); test: REVEAL HLA-Peptide binding assay (ProImmune); conditions: score relative to high-affinity control peptide, percentage of the control signal
T1 construct: purchased ProImmune
Procedure: as §1, §2

DRB1*07:01 = DRB1*07:01 (Homo sapiens, UniProt P01903+P01911, A100R/A102G/A103Q/D57E/D86V/E43K/F76Y/K127E/L162R/M171V/P40G/Q125H/Q99D/R33Q/R42Y/R54Q/S133A/S66F/T210M/V115G/Y107V/Y59L/Y89S); test: REVEAL HLA-Peptide binding assay (ProImmune); conditions: score relative to high-affinity control peptide, percentage of the control signal
Procedure: as §1, §2

DRB1*03:01 = target: T2, DRB1*03:01 (Homo sapiens, UniProt P01903+P01911, A100K/A102G/A103R/A169T/F55Y/I96L/K41T/L162R/M171V/P40S/Q125H/Q178H/Q39Y/R42S/S66N/T106N/T262R/W38E/Y61H); test: REVEAL HLA-Peptide binding assay (ProImmune); conditions: score relative to high-affinity control peptide, percentage of the control signal
T2 construct: purchased ProImmune
Procedure: as §1, §2

[2] = time 0 (H0), listed as LTRHLRIHPQSWEHQ
[3] = time 0 (H0), listed as FTRYLRIHPQSWEHQ
[4] = time 0 (H0), listed as TTRYLRIHPQSWEHQ
[5] = time 0 (H0), listed as VNSLDPPLFTRYLRI
[6] = time 0 (H0), listed as LRIHPQSWEHQIALRM
[7] = time 0 (H0), listed as LTRYLRIHPQSWVHQ
[8] = time 0 (H0), listed as VNSLDPPLTTRYLRI
[9] = time 0 (H0), listed as LRIHPQSWVHQIALRM

Sequence | Difference to WT (Experimental Score) ([1]; after 24 hours (H24)) | Experimental Score ([1]; after 24 hours (H24)) | Difference to WT (Experimental Score) ([1]; time 0 (H0)) | Experimental Score ([1]; time 0 (H0)) | DRB1*15:01 (DRB1*15:01; after 24 hours (H24)) | DRB1*15:01 (DRB1*15:01; time 0 (H0)) | DRB1*07:01 (DRB1*07:01; after 24 hours (H24)) | DRB1*07:01 (DRB1*07:01; time 0 (H0)) | DRB1*03:01 (DRB1*03:01; after 24 hours (H24)) | DRB1*03:01 (DRB1*03:01; time 0 (H0)) | other results
LTRHLRIHPQSWEHQ [Design M-8, peptide covering Y2324H, V2333E] | -13.048 | 0.339 | -15.092 | 2.630 | 2.000% | 13.999% | 0.100% | 2.480% | 0.000% | 0.000% | DRB1*15:01 (DRB1*15:01; [2]): 0.0%; DRB1*07:01 (DRB1*07:01; [2]): 14.0%; DRB1*03:01 (DRB1*03:01; [2]): 2.5%
FTRYLRIHPQSWEHQ [Design M-10, peptide covering L2321F, V2333E] | -9.338 | 4.049 | -10.856 | 6.865 | 0.300% | 2.906% | 27.400% | 43.779% | 0.000% | 0.020% | DRB1*15:01 (DRB1*15:01; [3]): 2.9%; DRB1*07:01 (DRB1*07:01; [3]): 43.8%; DRB1*03:01 (DRB1*03:01; [3]): 0%
TTRYLRIHPQSWEHQ [Design M-11, peptide covering L2321T, V2333E] | -5.886 | 7.501 | -6.123 | 11.598 | 1.600% | 6.575% | 49.600% | 71.612% | 0.000% | 0.544% | DRB1*15:01 (DRB1*15:01; [4]): 6.6%; DRB1*07:01 (DRB1*07:01; [4]): 71.6%; DRB1*03:01 (DRB1*03:01; [4]): 0.5%
VNSLDPPLFTRYLRI [Design M-1, peptide covering L2321F] | 0.042 | 0.096 | -0.356 | 1.040 | 0.000% | 0.427% | 0.497% | 6.490% | 0.165% | 0.165% | DRB1*15:01 (DRB1*15:01; [5]): 0.4%; DRB1*07:01 (DRB1*07:01; [5]): 6.5%; DRB1*03:01 (DRB1*03:01; [5]): 0.2%
LRLHPQSWEHQIALRM [Design M-15, peptide covering I2327L, V2333E] | -4.380 | 3.998 | -7.378 | 9.191 | 5.300% | 18.099% | 21.500% | 42.841% | 0.000% | 0.032% | –
LRIHPQSWEHQIALRM [Design M-6, peptide covering V2333E] | -3.607 | 4.770 | -4.693 | 11.877 | 11.600% | 44.319% | 19.800% | 32.020% | 0.000% | 0.157% | DRB1*15:01 (DRB1*15:01; [6]): 44.3%; DRB1*07:01 (DRB1*07:01; [6]): 32%; DRB1*03:01 (DRB1*03:01; [6]): 0.2%
LTRYLRIHPQSWVHQ [WT-3, wild-type peptide of Factor VIII C2 domain, reference compound] | – | 13.387 | – | 17.722 | 15.728% | 30.478% | 74.002% | 87.324% | 0.243% | 0.243% | DRB1*15:01 (DRB1*15:01; [7]): 30.5%; DRB1*07:01 (DRB1*07:01; [7]): 87.3%; DRB1*03:01 (DRB1*03:01; [7]): 0.2%
VNSLDPPLTTRYLRI [Design M-2, peptide covering L2321T] | -0.054 | 0.000 | -1.367 | 0.029 | 0.000% | 0.000% | 0.000% | 0.100% | 0.000% | 0.100% | DRB1*15:01 (DRB1*15:01; [8]): 0%; DRB1*07:01 (DRB1*07:01; [8]): 0.1%; DRB1*03:01 (DRB1*03:01; [8]): 0.1%
LRIHPQSWVHQIALRM [WT-4, wild-type peptide of Factor VIII C2 domain, reference compound] | – | 8.377 | – | 16.570 | 17.219% | 50.927% | 38.252% | 56.788% | 0.021% | 0.200% | DRB1*15:01 (DRB1*15:01; [9]): 50.9%; DRB1*07:01 (DRB1*07:01; [9]): 56.8%; DRB1*03:01 (DRB1*03:01; [9]): 0.2%

Source: paper PMC5851651, “Population-specific design of de-immunized protein biotherapeutics” (PLoS Computational Biology, 2018)
